Consider 21 compounds from patent US20230141600A1, “IMIDAZOPYRAZINE DERIVATIVES” (priority 2020, published 2023).

Counter-ions that a name gives are not always drawn.

One test has as its system Acinetobacter baumannii ATCC17961. The experiment in a line: 90% growth inhibitory concentration (IC90) determination, antimicrobial susceptibility testing. The class given is cell-based. The note with it: Acinetobacter baumannii, ATCC17961, 16 h, 90% growth inhibition, Iso-Sensitest broth, OD 600 nm over 16 h, 35±2° C.; read-out: ATCC 17961 IC90. An outline of the steps:
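Twofold serial dilutions (e.g. 50 to 0.097 μM final) in Iso-Sensitest broth, inoculated at ~5×10^5 CFU/ml and incubated at 35±2 °C for 16 h with OD600 read every minute. IC90 taken from growth inhibition during the logarithmic phase.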
For `CCc1cc(Nc2nccn3c(-c4ccc(OC)c(F)c4F)cnc23)ccc1C(=O)NCC1CC[N+](C)(CC(=O)O)CC1` (stereo not drawn) [Example 115, 2-[4-[[[4-[[3-(2,3-Difluoro-4-methoxy-phenyl)imidazo[1,2-a]pyrazin-8-yl]amino]-2-ethyl-benzoyl]amino]methyl]-1-methyl-piperidin-1-ium-1-yl]acetic acid 2,2,2-trifluoroacetate], the IC90 was 205 nM.

Turning to `C[N+]1(CC2CCNC2)CCC(C(=O)N2CCN(C(=O)c3ccc(Nc4nccn5c(-c6ccc(OC(F)F)c(F)c6F)cnc45)cc3Cl)CC2)CC1` (stereo not drawn) [Example 116, [2-Chloro-4-[[3-[4-(difluoromethoxy)-2,3-difluoro-phenyl]imidazo[1,2-a]pyrazin-8-yl]amino]phenyl]-[4-[1-methyl-1-(pyrrolidin-3-ylmethyl)piperidin-1-ium-4-carbonyl]piperazin-1-yl]methanone Formate], the IC90 was 81.1 nM.

For `C[N+]1(CC2CCNC2)CCC(C(=O)NCCCNC(=O)c2ccc(Nc3nccn4c(-c5ccc(OC(F)F)c(F)c5F)cnc34)cc2Cl)CC1` (stereo not drawn) [Example 117, N-[3-[[2-Chloro-4-[[3-[4-(difluoromethoxy)-2,3-difluoro-phenyl]imidazo[1,2-a]pyrazin-8-yl]amino]benzoyl]amino]propyl]-1-methyl-1-(pyrrolidin-3-ylmethyl)piperidin-1-ium-4-carboxamide Formate], the IC90 is 157 nM. On the same count and under the same terms, next, `CCc1cc(Nc2nccn3c(-c4ccc(Oc5ncccn5)c(F)c4F)cnc23)ccc1C(=O)NCC1CC[N+](C)(CC2CCNC2)CC1` (stereo not drawn) [Example 118, 4-[[3-(2,3-Difluoro-4-pyrimidin-2-yloxy-phenyl)imidazo[1,2-a]pyrazin-8-yl]amino]-2-ethyl-N-[[1-methyl-1-(pyrrolidin-3-ylmethyl)piperidin-1-ium-4-yl]methyl]benzamide Formate]: 832 nM; `CCc1cc(Nc2nccn3c(-c4ccc(OC(F)F)c(F)c4F)cnc23)ccc1C(=O)N1CC[N+](C)(CC2CCNC2)CC1` (stereo not drawn) [Example 119, [4-[[3-[4-(Difluoromethoxy)-2,3-difluoro-phenyl]imidazo[1,2-a]pyrazin-8-yl]amino]-2-ethyl-phenyl]-[4-methyl-4-(pyrrolidin-3-ylmethyl)piperazin-4-ium-1-yl]methanone Formate]: 1700 nM.

As to `CCc1cc(Nc2nccn3c(-c4ccc(OC)c(F)c4F)cnc23)ccc1C(=O)N[C@H]1C[C@@H](NC(=O)C2CC[N+](C)(CC3CNC3)CC2)C1` (stereo partly drawn) [Example 126, 1-(Azetidin-3-ylmethyl)-N-[3-[[4-[[3-(2,3-difluoro-4-methoxy-phenyl)imidazo[1,2-a]pyrazin-8-yl]amino]-2-ethyl-benzoyl]amino]cyclobutyl]-1-methyl-piperidin-1-ium-4-carboxamide formate 2,2,2-trifluoroacetate (Mixed Salt)], the IC90 is 111 nM. Still for that read-out and setting: next, `CCc1cc(Nc2nccn3c(-c4ccc(OC)c(F)c4F)cnc23)ccc1C(=O)NCC1CC(NC(=O)C2CC[N+](C)(CC3CNC3)CC2)C1` (stereo not drawn) [Example 127, 1-(Azetidin-3-ylmethyl)-N-[3-[[[4-[[3-(2,3-difluoro-4-methoxy-phenyl)imidazo[1,2-a]pyrazin-8-yl]amino]-2-ethyl-benzoyl]amino]methyl]cyclobutyl]-1-methyl-piperidin-1-ium-4-carboxamide formate 2,2,2-trifluoroacetate (Mixed Salt)]: 258 nM; `CCc1cc(Nc2nccn3c(-c4ccc(OC)c(F)c4F)cnc23)ccc1C(=O)NCC1CC[N+](CC(=O)O)(CC2CNC2)CC1` (stereo not drawn) [Example 128, 2-[1-(Azetidin-3-ylmethyl)-4-[[[4-[[3-(2,3-difluoro-4-methoxy-phenyl)imidazo[1,2-a]pyrazin-8-yl]amino]-2-ethyl-benzoyl]amino]methyl]piperidin-1-ium-1-yl]acetic acid bis(2,2,2-trifluoroacetate)]: 343 nM; `CCc1cc(Nc2nccn3c(-c4ccc(OC)c(F)c4F)cnc23)ccc1C(=O)NCCCNC(=O)C1CC[N+](C)(CC2CNC2)CC1` (stereo not drawn) [Example 129, 1-(Azetidin-3-ylmethyl)-N-[3-[[4-[[3-(2,3-difluoro-4-methoxy-phenyl)imidazo[1,2-a]pyrazin-8-yl]amino]-2-ethyl-benzoyl]amino]propyl]-1-methyl-piperidin-1-ium-4-carboxamide bis(trifluoroacetate)]: 86.2 nM. `CCc1cc(Nc2nccn3c(-c4ccc(OC)c(F)c4F)cnc23)ccc1C(=O)NCCCNC(=O)C[C@@H]1CC[N+](C)(CC2CNC2)C1` (stereo partly drawn) [Example 130, N-[3-[[2-[(3S)-1-(Azetidin-3-ylmethyl)-1-methyl-pyrrolidin-1-ium-3-yl]acetyl]amino]propyl]-4-[[3-(2,3-difluoro-4-methoxy-phenyl)imidazo[1,2-a]pyrazin-8-yl]amino]-2-ethyl-benzamide bis(2,2,2-trifluoroacetate)]: the IC90 was 108 nM. As for `CCc1cc(Nc2nccn3c(-c4ccc(OC)c(F)c4F)cnc23)ccc1C(=O)NCCCNC(=O)CC1CC[N+](C)(CC2CNC2)CC1` (stereo not drawn) [Example 131, N-[3-[[2-[1-(Azetidin-3-ylmethyl)-1-methyl-piperidin-1-ium-4-yl]acetyl]amino]propyl]-4-[[3-(2,3-difluoro-4-methoxy-phenyl)imidazo[1,2-a]pyrazin-8-yl]amino]-2-ethyl-benzamide bis(2,2,2-trifluoroacetate)], the IC90 is 114 nM. The same measure, in the same setting: the result for `CCc1cc(Nc2nccn3c(-c4ccc(OC)c(F)c4F)cnc23)ccc1C(=O)NCC1CC[N+](C)(CC(=O)NCC2CCNC2)CC1` (stereo not drawn) [Example 132, 4-[[3-(2,3-Difluoro-4-methoxy-phenyl)imidazo[1,2-a]pyrazin-8-yl]amino]-2-ethyl-N-[[1-methyl-1-[2-oxo-2-(pyrrolidin-3-ylmethylamino)ethyl]piperidin-1-ium-4-yl]methyl]benzamide bis(2,2,2-trifluoroacetate)] reads 320 nM. In the case of `CCc1cc(Nc2nccn3c(-c4ccc(OC)c(F)c4F)cnc23)ccc1C(=O)NCC1CC[N+](C)(CC2CNC2)CC1` (stereo not drawn) [Example 134, N-[[1-(Azetidin-3-ylmethyl)-1-methyl-piperidin-1-ium-4-yl]methyl]-4-[[3-(2,3-difluoro-4-methoxy-phenyl)imidazo[1,2-a]pyrazin-8-yl]amino]-2-ethyl-benzamide; 2,2,2-trifluoroacetate bis(2,2,2-trifluoroacetate)], the 90% effect concentration (IC90) was found to be 350 nM.

Take `CCc1cc(Nc2nccn3c(-c4ccc(OC)c(F)c4F)cnc23)ccc1C(=O)NCC1CC[N+](C)(CC2CC[N+](C)(C)C2)CC1` (stereo not drawn) [Example 135, 4-[[3-(2,3-Difluoro-4-methoxy-phenyl)imidazo[1,2-a]pyrazin-8-yl]amino]-N-[[1-[(1,1-dimethylpyrrolidin-1-ium-3-yl)methyl]-1-methyl-piperidin-1-ium-4-yl]methyl]-2-ethyl-benzamide Diformate]: the IC90 is 479 nM. As to `CCc1cc(Nc2nccn3c(-c4ccc(OC)c(F)c4F)cnc23)ccc1C(=O)NC1CC[N+](C)(CC2CNC2)CC1` (stereo not drawn) [Example 136, N-[1-(Azetidin-3-ylmethyl)-1-methyl-piperidin-1-ium-4-yl]-4-[[3-(2,3-difluoro-4-methoxy-phenyl)imidazo[1,2-a]pyrazin-8-yl]amino]-2-ethyl-benzamide bis(2,2,2-trifluoroacetate)], the IC90 is 955 nM. For the compound `CCc1cc(Nc2nccn3c(-c4c[nH]nc4C(F)(F)F)cnc23)ccc1C(=O)NCC1CC[N+](C)(CC2CNC2)C1` (stereo not drawn) [Example 138, N-[[1-(Azetidin-3-ylmethyl)-1-methyl-pyrrolidin-1-ium-3-yl]methyl]-2-ethyl-4-[[3-[3-(trifluoromethyl)-1H-pyrazol-4-yl]imidazo[1,2-a]pyrazin-8-yl]amino]benzamide bis(2,2,2-trifluoroacetate)], the IC90 stood at 4140 nM. In the case of `CCc1cc(Nc2nccn3c(-c4ccc(OC)c(F)c4F)cnc23)ccc1C(=O)NCCC[N+](C)(CC1CNC1)CC1CNC1` [Example 139, Bis(azetidin-3-ylmethyl)-[3-[[4-[[3-(2,3-difluoro-4-methoxy-phenyl)imidazo[1,2-a]pyrazin-8-yl]amino]-2-ethyl-benzoyl]amino]propyl]-methyl-ammonium bis(2,2,2-trifluoroacetate)], the IC90 is 4820 nM. For `CCc1cc(Nc2nccn3c(-c4ccc(OC)c(F)c4F)cnc23)ccc1C(=O)NCC1CC[N+](CCO)(CC2CNC2)CC1` (stereo not drawn) [Example 141, N-[[1-(Azetidin-3-ylmethyl)-1-(2-hydroxyethyl)piperidin-1-ium-4-yl]methyl]-4-[[3-(2,3-difluoro-4-methoxy-phenyl)imidazo[1,2-a]pyrazin-8-yl]amino]-2-ethyl-benzamide 2,2,2-trifluoroacetate], the 90% effect concentration (IC90) amounted to 169 nM. On the same count and under the same terms, the result for `CCc1cc(Nc2nccn3c(-c4ccc(OC)c(F)c4F)cnc23)ccc1C(=O)NCC1CC[N+](C)(CC2CCCN2)CC1` (stereo not drawn) [Example 142, 4-[[3-(2,3-Difluoro-4-methoxy-phenyl)imidazo[1,2-a]pyrazin-8-yl]amino]-2-ethyl-N-[[1-methyl-1-(pyrrolidin-2-ylmethyl)piperidin-1-ium-4-yl]methyl]benzamide 2,2,2-trifluoroacetate] reads 336 nM.

The same test, now with this note: Acinetobacter baumannii, ATCC17961, 16 h, read-out: ATCC 17961 IC90.
On to `CCc1cc(Nc2nccn3c(-c4ccc(OC)c(F)c4F)cnc23)ccc1C(=O)NCC1CCN(C(=O)C2CC[N+](C)(CC3CNC3)CC2)CC1` (stereo not drawn) [Example 133, N-[[1-[1-(Azetidin-3-ylmethyl)-1-methyl-piperidin-1-ium-4-carbonyl]-4-piperidyl]methyl]-4-[[3-(2,3-difluoro-4-methoxy-phenyl)imidazo[1,2-a]pyrazin-8-yl]amino]-2-ethyl-benzamide bis(2,2,2-trifluoroacetate)], for which the IC90 is 334 nM.

Regarding `CCc1cc(Nc2nccn3c(-c4ccc(OC)c(F)c4F)cnc23)ccc1C(=O)NCC1CC[N+](C)(Cc2cccnc2)CC1` (stereo not drawn) [Example 140, 4-[[3-(2,3-difluoro-4-methoxy-phenyl)imidazo[1,2-a]pyrazin-8-yl]amino]-2-ethyl-N-[[1-methyl-1-(3-pyridylmethyl)piperidin-1-ium-4-yl]methyl]benzamide; 2,2,2-trifluoroacetate], the IC90 was 115 nM.
